#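 Five concentrations, 48 hours, 96-well plates. Here, GI50 denotes the concentration required for 50% inhibition of growth.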 Calls of active or inactive are those of the source. No stated cut-off is given here; in the data, active = GI50 up to about 1.1 µM and inactive = higher.
# Legend:
# Assay in all cases: growth of human tumour cells (NCI), 48 h
# HCT-116 = system: HCT-116
# CAKI-1 = system: CAKI-1
# SW-620 = system: SW-620
# COLO 205 = system: COLO 205
# T47D = system: T47D
# UACC-62 = system: UACC-62
# MOLT-4 = system: MOLT-4
# SNB-75 = system: SNB-75
# OVCAR-4 = system: OVCAR-4
# MDA-MB-435 = system: MDA-MB-435
# SK-MEL-2 = system: SK-MEL-2
# LOX IMVI = system: LOX IMVI
# DU-145 = system: DU-145
# OVCAR-3 = system: OVCAR-3
# SF-268 = system: SF-268
# NCI/ADR-RES = system: NCI/ADR-RES
# Malme-3M = system: Malme-3M
# NCI-H522 = system: NCI-H522
# A549 = system: A549
# HT-29 = system: HT-29
# RPMI-8226 = system: RPMI-8226
# OVCAR-5 = system: OVCAR-5
# UO-31 = system: UO-31
# SF-539 = system: SF-539
# SK-MEL-5 = system: SK-MEL-5
# SNB-19 = system: SNB-19
# SK-MEL-28 = system: SK-MEL-28
# HCC 2998 = system: HCC 2998
# 786-0 = system: 786-0
# Hs-578T = system: Hs-578T
# ACHN = system: ACHN
# NCI-H226 = system: NCI-H226
# U-251 = system: U-251
# MCF7 = system: MCF7
# SF-295 = system: SF-295
# UACC-257 = system: UACC-257
# IGROV-1 = system: IGROV-1
# SN12C = system: SN12C
# CCRF-CEM = system: CCRF-CEM
# EKVX = system: EKVX
# HL-60 = system: HL-60
# MDA-MB-231 = system: MDA-MB-231
# MDA-N = system: MDA-N
# SK-OV-3 = system: SK-OV-3
# KM12 = system: KM12
# BT-549 = system: BT-549
# NCI-H23 = system: NCI-H23
# NCI-H460 = system: NCI-H460
# K562 = system: K562
# M14 = system: M14
# OVCAR-8 = system: OVCAR-8
# HOP-92 = system: HOP-92
# HCT-15 = system: HCT-15
# TK-10 = system: TK-10
# PC-3 = system: PC-3
# RXF 393 = system: RXF 393
# HOP-62 = system: HOP-62
# A498 = system: A498
compound,measurement,setting,value
C=C(C)C1Cc2cc(C(C)=O)ccc2O1 (stereo unspecified),GI50,HCT-116,> 100 µM (inactive)
same,GI50,CAKI-1,> 100 µM (inactive)
same,GI50,SW-620,> 100 µM (inactive)
same,GI50,COLO 205,> 100 µM (inactive)
same,GI50,T47D,> 100 µM (inactive)
same,GI50,UACC-62,> 100 µM (inactive)
same,GI50,MOLT-4,> 100 µM (inactive)
same,GI50,SNB-75,> 100 µM (inactive)
same,GI50,OVCAR-4,> 100 µM (inactive)
same,GI50,MDA-MB-435,> 100 µM (inactive)
same,GI50,SK-MEL-2,> 100 µM (inactive)
same,GI50,LOX IMVI,> 100 µM (inactive)
same,GI50,DU-145,> 100 µM (inactive)
same,GI50,OVCAR-3,> 100 µM (inactive)
same,GI50,SF-268,> 100 µM (inactive)
same,GI50,NCI/ADR-RES,> 100 µM (inactive)
same,GI50,Malme-3M,> 100 µM (inactive)
same,GI50,NCI-H522,> 100 µM (inactive)
same,GI50,A549,> 100 µM (inactive)
same,GI50,HT-29,> 100 µM (inactive)
same,GI50,RPMI-8226,> 100 µM (inactive)
same,GI50,OVCAR-5,> 100 µM (inactive)
same,GI50,UO-31,> 100 µM (inactive)
same,GI50,SF-539,> 100 µM (inactive)
same,GI50,SK-MEL-5,> 100 µM (inactive)
same,GI50,SNB-19,> 100 µM (inactive)
same,GI50,SK-MEL-28,> 100 µM (inactive)
same,GI50,HCC 2998,> 100 µM (inactive)
same,GI50,786-0,> 100 µM (inactive)
same,GI50,Hs-578T,> 100 µM (inactive)
same,GI50,ACHN,> 100 µM (inactive)
same,GI50,NCI-H226,> 100 µM (inactive)
same,GI50,U-251,> 100 µM (inactive)
same,GI50,MCF7,> 100 µM (inactive)
same,GI50,SF-295,> 100 µM (inactive)
same,GI50,UACC-257,> 100 µM (inactive)
same,GI50,IGROV-1,> 100 µM (inactive)
same,GI50,SN12C,> 100 µM (inactive)
same,GI50,CCRF-CEM,> 100 µM (inactive)
same,GI50,EKVX,> 100 µM (inactive)
same,GI50,HL-60,> 100 µM (inactive)
same,GI50,MDA-MB-231,> 100 µM (inactive)
same,GI50,MDA-N,> 100 µM (inactive)
same,GI50,SK-OV-3,> 100 µM (inactive)
same,GI50,KM12,> 100 µM (inactive)
same,GI50,BT-549,> 100 µM (inactive)
same,GI50,NCI-H23,> 100 µM (inactive)
same,GI50,NCI-H460,> 100 µM (inactive)
same,GI50,K562,> 100 µM (inactive)
same,GI50,M14,> 100 µM (inactive)
same,GI50,OVCAR-8,> 100 µM (inactive)
same,GI50,HOP-92,> 100 µM (inactive)
same,GI50,HCT-15,> 100 µM
same,GI50,TK-10,> 100 µM (inactive)
same,GI50,PC-3,> 100 µM (inactive)
O=[N+]([O-])/C(C(Cl)=C(Cl)Cl)=C(\Nc1cccc2ccccc12)Sc1ccccc1,GI50,HCT-116,15 µM (inactive)
same,GI50,CAKI-1,15.5 µM (inactive)
same,GI50,SW-620,8.53 µM (inactive)
same,GI50,COLO 205,15.1 µM (inactive)
same,GI50,T47D,19.5 µM (inactive)
same,GI50,UACC-62,10.8 µM (inactive)
same,GI50,MOLT-4,> 100 µM (inactive)
same,GI50,SNB-75,19.2 µM (inactive)
same,GI50,OVCAR-4,10.4 µM (inactive)
same,GI50,MDA-MB-435,13.8 µM (inactive)
same,GI50,SK-MEL-2,14.6 µM (inactive)
same,GI50,DU-145,13.2 µM (inactive)
same,GI50,OVCAR-3,7.31 µM (inactive)
same,GI50,SF-268,12.9 µM (inactive)
same,GI50,NCI/ADR-RES,15.2 µM (inactive)
same,GI50,Malme-3M,17.5 µM (inactive)
same,GI50,A549,19.7 µM (inactive)
same,GI50,HT-29,19.5 µM (inactive)
same,GI50,RPMI-8226,6.89 µM (inactive)
same,GI50,OVCAR-5,20.3 µM (inactive)
same,GI50,UO-31,16 µM (inactive)
same,GI50,SF-539,19.3 µM (inactive)
same,GI50,RXF 393,12.9 µM (inactive)
same,GI50,SNB-19,18.8 µM (inactive)
same,GI50,SK-MEL-28,18.7 µM (inactive)
same,GI50,HCC 2998,17.8 µM (inactive)
same,GI50,HOP-62,23.9 µM (inactive)
same,GI50,786-0,18.4 µM (inactive)
same,GI50,Hs-578T,12.8 µM (inactive)
same,GI50,ACHN,13.9 µM (inactive)
same,GI50,NCI-H226,16.1 µM (inactive)
same,GI50,U-251,11.4 µM (inactive)
same,GI50,MCF7,12.6 µM (inactive)
same,GI50,SF-295,15.2 µM (inactive)
same,GI50,UACC-257,14.8 µM (inactive)
same,GI50,SN12C,20.2 µM (inactive)
same,GI50,CCRF-CEM,8.55 µM (inactive)
same,GI50,EKVX,11.4 µM (inactive)
same,GI50,MDA-MB-231,11.3 µM (inactive)
same,GI50,MDA-N,16.5 µM (inactive)
same,GI50,SK-OV-3,26.1 µM (inactive)
same,GI50,KM12,13.2 µM (inactive)
same,GI50,BT-549,18.4 µM (inactive)
same,GI50,NCI-H23,16 µM (inactive)
same,GI50,NCI-H460,19.8 µM (inactive)
same,GI50,K562,57.3 µM (inactive)
same,GI50,M14,24.9 µM (inactive)
same,GI50,A498,11 µM (inactive)
same,GI50,OVCAR-8,15.3 µM (inactive)
same,GI50,HCT-15,15.7 µM
same,GI50,PC-3,13.5 µM (inactive)
